# Data published in publication PMC9148072, “Design, Cytotoxicity and Antiproliferative Activity of 4-Amino-5-methyl-thieno[2,3-d]pyrimidine-6-carboxylates against MFC-7 and MDA-MB-231 Breast Cancer Cell Lines” (Molecules, 2022).
# Like-named read-outs stand apart in the source and are kept apart here.
# Assays:
# MCF-10A cell line = experiment: MTT antiproliferative assay, MCF-10A; type: cell-based; conditions: Homo sapiens, 72 h
# Procedure: (§1) The compounds were studied for antiproliferative activity by standard MTT dye-reduction assay. Cell cultures from MCF-10A, MCF-7 and MDAMB-231 cell lines were incubated for 72 h in the presence of the tested substances in a wide range of concentrations. At the MCF-10A and MDA-MB-231 cell lines, compound 4 was applied in the range from 0.5 to 100 µg/mL, and all others from 4 to 1000 µg/mL.
# In order to determine antitumor activity, as a reliable model and a control we used the MCF-10A cell line (normal human mammary epithelial cells).
# (§2) All breast cell lines (MCF-10A, MCF-7 and MDA-MB-231) were purchased from the American Type Culture Collection—ATCC (Manassas, VA, USA). The MCF-7 and MDA-MB-231 were cultivated in Dulbecco’s Modified Eagle’s Medium (DMEM) supplemented with 10% fetal bovine serum (FBS), 1% sodium pyruvate, 1% MEM nonessential amino acids (NEAA) without antibiotics. The nontumorigenic breast cell line (MCF-10A) was cultivated in DMEM medium (Sigma-Aldrich, St. Louis, MO, USA) supplemented with 10% FBS, 1% sodium pyruvate, 1% nonessential amino acids (NEAA), 20 ng/mL human epithelia growth factor (hEGF), 10 μg/mL insulin, and 0.5 μg/mL hydrocortisone without antibiotics. All cell lines were maintained in a humidified atmosphere with 5% CO2 at 37 °C.
# (§3) Using the standard MTT dye-reduction assay, described by Mosmann the antiproliferative activity was tested. The method is based on the metabolism of the tetrazolium salt MTT to insoluble formazan. The formazan absorption was registered using a microplate reader at λ = 540 nm. The measured absorption is an indicator of cell viability and metabolic activity. Antiproliferative activities were expressed as IC50 values (concentrations required for 50% inhibition of cell growth), calculated using nonlinear regression analysis (GraphPad Software, San Diego, CA, USA).
# MCF-7 cell line = experiment: MTT antiproliferative assay, MCF-7; type: cell-based, human; conditions: for IC50: Homo sapiens, MCF7; for Selective Index MCF-7: SI = IC50 of MCF-10A/IC50 of MCF-7
# Procedure: as §1
# The MCF-7 cell line was treated with compounds 2, 3 and 4 at concentrations from 0.5 to 100 µg/mL, and all others from 4 to 1000 µg/mL. The antiproliferative activity expressed in % relative to the negative control (untreated cells accepted as a 100% viable or 0% antiproliferative activity) was determined and shown on Figure 6.
# as §2, §3
# MDA-MB-231 cell line = experiment: MTT antiproliferative assay, MDA-MB-231; type: cell-based, human; conditions: for IC50: MDA-MB-231, 72 h, MTT; for Selective Index MDA-MB-231: SI = IC50 of MCF-10A/IC50 of MDA-MB-231
# Procedure: as §1, §2, §3
# [1] = 3T3 Neutral Red Uptake (NRU) cytotoxicity test; type: cell-based, mouse; conditions: mouse, BALB/3T3 clone A31 cells; for CC50 at 24 h: BALB 3T3, 24 h, no irradiation, read-out: CC50 of Mean ± SD, Cytotoxicity; for IC50 at 24 h: BALB 3T3, converted from µg/mL, read-out: IC50 cytotoxicity against BALB 3T3
# [2] = 3T3 NRU phototoxicity test (irradiated); type: cell-based, mouse; conditions: mouse, BALB/3T3 clone A31 cells; BALB 3T3, irradiated 2.4 J/cm2, then 24 h; read-out: CC50 of Mean ± SD, Phototoxicity
# Source text: (§4) Some organic compounds exposed to sunlight can be converted into phototoxins as a result of light-induced changes in energy state or degradation of the molecule. The estimation of phototoxicity can serve as an indicator of the photostability of the studied thienopyrimidines when irradiated with UV light and as evidence that their effect on cells is only due to the cytotoxicity and not to phototoxicity. The compounds were studied for cytotoxicity by the 3T3 Neutral Red […] (NRU) phototoxicity test based on a comparison of the cytotoxicity of a chemical when tested in the presence and absence of noncytotoxic exposure to UVA/vis light. The cells were incubated with the test substances at a variable concentration: for compound 4 from 0.5 to 100 μg/mL, and for all the rest from 15 to 4000 μg/mL for 24 h.
# (§5) The light source used was a light emitting diode (LED) matrix, an artificial solar light simulator Helios-iO, model LE-9ND55-H—5500K (SERIC Ltd., Tokyo, Japan).
# (§6) BALB/3T3 cells were cultured in 75 cm^2 tissue-culture flasks in DMEM, 10% FBS, 2 mM glutamine and antibiotics (penicillin 100 U/mL and streptomycin 100 µg/mL) at 37 °C, 5% CO2 and 90% relative humidity. Cytotoxicity/phototoxicity was assessed by validated BALB/3T3 clone A31 Neutral Red Uptake Assay (3T3 NRU test). Briefly, cells were plated in a 96-well microtiter plate at a density of 1 × 10^4 cells/100 µL/well and were incubated for 24 h. A wide concentration range of the test compounds was applied. In phototoxicity tests, 96-well plates were irradiated with dose 2.4 J/cm^2 and the cells were incubated for additional 24 h. After treatment with Neutral Red medium, washing and treatment with the Ethanol/Acetic acid solution, the absorption was measured on a TECAN microplate reader (TECAN, Grödig, Austria) at wavelength 540 nm.
# (§7) Cytotoxicity/phototoxicity were expressed as CC50/PC50 values (concentrations required for 50% cytotoxicity/phototoxicity), calculated using nonlinear regression analysis (GraphPad Software, Prism 8.0.2 (263), San Diego, CA, USA). The CC50 values can be used to calculate the PIF (photoirritancy factor) for each test substance, according to the following formula:PIF = Cytotoxicity (CC50)/Phototoxicity (PC50)(6)
# ABC efflux pumps = tested on: ABC efflux pumps; design: method as in PMID 19783433; conditions: Figure 1; read-out: EC50 in the daunorubicin accumulation assay; cited from earlier work
# VEGER = tested on: VEGER; design: method as in PMID 30343204; conditions: Figure 1; cited from earlier work
# BALB 3T3 cells [3] = experiment: 3T3 NRU phototoxicity test (irradiated); type: cell-based, mouse; conditions: CC50/PC50; PIF < 2 not phototoxic, ≥ 2 and < 5 probable phototoxicity, ≥ 5 phototoxic
# Source text: as §4, §5, §6, §7
# FGFR1 = conditions: Figure 1; cited from earlier work
# Aurora B kinase = molecular target: Aurora B kinase; design: method as in PMID 21778056; conditions: Figure 1; read-out: Aur B IC50; cited from earlier work
# MDA-MB-231 = conditions: results published earlier, read-out: IC50 (MDA-MB-231) of lead compounds A and B; cited from earlier work
# MCF-7 = conditions: results published earlier, read-out: IC50 (MCF-7) of lead compounds A and B; cited from earlier work
# Tie-2 = tested on: Tie-2; design: method as in PMID 19854647; conditions: Figure 1; read-out: Tie-2 cells IC50; cited from earlier work
# BALB 3T3 cells [4] = experiment: 3T3 Neutral Red Uptake (NRU) cytotoxicity test; type: cell-based, mouse; conditions: BALB 3T3, 15 to 4000 µg/mL, 24 h
# EGFR = tested on: EGFR; design: method as in PMID 31051400; conditions: cited from earlier work
# KDR = tested on: KDR; design: method as in doi:10.1016/j.medidd.2019.100009; conditions: Figure 1; cited from earlier work
# [5] = read-out: IC50 Antiproliferative Activity MCF-10A (converted)
# [6] = read-out: IC50 ± SD Antiproliferative Activity MCF-10A
# [7] = MCF-7, 72 h, MTT, read-out: IC50 Antiproliferative Activity MCF-7 in µM (converted)
# [8] = MCF-7, 72 h, MTT, read-out: IC50 ± SD Antiproliferative Activity MCF-7
# [9] = Homo sapiens, read-out: IC50 Antiproliferative Activity MDA-MB-231 in µM (converted)
# [10] = Homo sapiens, read-out: IC50 ± SD Antiproliferative Activity MDA-MB-231
smiles,measurement,setting,value
"CCOC(=O)c1sc2nc(Cc3ccc([N+](=O)[O-])cc3)nc(N)c2c1C [Compound 3, Ethyl 4-Amino-5-methyl-2-(4-nitrobenzyl) Thieno [2,3-d] Pyrimidine-6-carboxylate]",IC50,MCF-10A cell line; [5],440 µM
same,IC50,MCF-10A cell line; [6],165 ± 8.81 µg/mL
same,IC50,MCF-7 cell line; [7],23 µM
same,IC50,MCF-7 cell line; [8],8.58 ± 0.55 µg/mL
same,IC50,MDA-MB-231 cell line; [9],250 µM
same,IC50,MDA-MB-231 cell line; [10],98.2 ± 4.73 µg/mL
same,IC50,MDA-MB-231 cell line; read-out: IC50 Antiproliferative Activity MDA-MB-231 in µM (converted),260 µM
same,CC50 at 24 h,[1],1160 ± 57.8 µg/mL
same,CC50 at 24 h,[2],578 ± 58.7 µg/mL
Nc1nc(SCCc2ccccc2)nc2sc3c(c12)CCCC3 [V],EC50,ABC efflux pumps,1.02 µM
CC(=O)c1cccc(NC(=O)Nc2ccc(Nc3ncnc4sc5c(c34)CCCC5)cc2)c1 [VIII],IC50,VEGER,1.5 µM
"CCOC(=O)c1sc2nc(Cc3ccccc3)nc(N)c2c1C [Compound 2, Ethyl 4-Amino-2-benzyl-5-methyl-thieno[2,3-d]pyrimidine-6-carboxylate]",IC50,MCF-10A cell line; [5],210 µM
same,IC50,MCF-10A cell line; [6],67.8 ± 9.1 µg/mL
same,IC50,MCF-7 cell line; [7],13 µM
same,IC50,MCF-7 cell line; [8],4.3 ± 0.11 µg/mL
same,IC50,MDA-MB-231 cell line; [9],56 µM
same,IC50,MDA-MB-231 cell line; [10],18.3 ± 1.58 µg/mL
same,Selective Index MDA-MB-231,MDA-MB-231 cell line,3.7
same,CC50 at 24 h,[1],1210 ± 103 µg/mL
same,melting point,,159 to 161 °C
same,PIF (Photoirritancy factor),BALB 3T3 cells [3],1.9
same,CC50 at 24 h,[2],632 ± 35.6 µg/mL
Oc1cccc(Nc2ncnc3sc(-c4ccccc4)cc23)c1 [VII],IC50,FGFR1,0.16 µM
Cc1sc2ncnc(N)c2c1C(=O)Nc1ccc(NC(=O)Nc2ccccc2)cc1 [II],IC50,Aurora B kinase,0.0002 µM
"CCOC(=O)c1sc2nc(-c3ccccn3)nc(N)c2c1C [Compound 7, Ethyl 4-Amino-5-methyl-2-(pyridin—2-yl) Thieno[2,3-d]pyrimidine-6-carboxylate]",IC50,MCF-10A cell line; [6],> 1000 µg/mL
same,IC50,MCF-7 cell line; [8],> 1000 µg/mL
same,IC50,MDA-MB-231 cell line; [10],> 1000 µg/mL
same,CC50 at 24 h,[1],2750 ± 64.3 µg/mL
same,IC50 at 24 h,[1],8800 µM
same,melting point,,262 to 264 °C
same,PIF (Photoirritancy factor),BALB 3T3 cells [3],1.08
same,CC50 at 24 h,[2],2550 ± 75.1 µg/mL
"CCOC(=O)c1sc2nc(-c3cccnc3)nc(N)c2c1C [Compound 8, Ethyl 4-Amino-5-methyl-2-(pyridin-3-yl)thieno [2,3-d]Pyrimidine-6-carboxylate]",melting point,,241 to 242 °C
"N.N.[Cl][Pt][Cl] [Cisplatin, reference compound]",Selective Index MCF-7,MCF-7 cell line,2.36
same,Selective Index MDA-MB-231,MDA-MB-231 cell line,25
CCOC(=O)c1sc2nc(CCn3c(=N)n(CCc4nc5sc(C(=O)OC)c(C)c5c(=O)[nH]4)c4ccccc43)[nH]c(=O)c2c1C [A],IC50,MDA-MB-231,0.16 µM
same,IC50,MCF-7,0.074 µM
same,IC50,MCF-7 cell line; read-out: pCI50 in MCF-7 test (converted),0.0741 µM
Oc1cccc(Nc2ncnc3scc(-c4ccccc4)c23)c1 [VI],IC50,FGFR1,0.18 µM
Cn1cnc(-c2cccc(NC(=O)Nc3cc(C(F)(F)F)ccc3F)c2)c1-c1cc2c(N)ncnc2s1 [I],IC50,Tie-2,0.07 µM
"CCOC(=O)c1sc2nc(-c3ccncc3)nc(N)c2c1C.Cl [Compound 6, Ethyl 4-Amino-5-methyl-2-(pyridin-4-yl)thieno[2,3-d]pyrimidine-6-carboxylate hydrochloride]",IC50,MCF-10A cell line; [5],1310 µM
same,IC50,MCF-10A cell line; [6],411 ± 5.1 µg/mL
same,IC50,MCF-7 cell line; [7],1410 µM
same,IC50,MCF-7 cell line; [8],444 ± 9.2 µg/mL
same,Selective Index MCF-7,MCF-7 cell line,0.92
same,IC50,MDA-MB-231 cell line; [9],370 µM
same,IC50,MDA-MB-231 cell line; [10],116 ± 9.63 µg/mL
same,Selective Index MDA-MB-231,MDA-MB-231 cell line,3.54
same,cytotoxicity versus BALB 3T3 cells (in words),BALB 3T3 cells [4],not cytotoxic
same,CC50 at 24 h,[1],> 4000 µg/mL
same,IC50 at 24 h,[1],> 13000 µM
same,melting point,,259 to 261 °C
CCOC(=O)c1sc2nc(CCn3c(=N)[nH]c4ccccc43)[nH]c(=O)c2c1C [B],IC50,MDA-MB-231,0.32 µM
same,IC50,MCF-7,0.21 µM
"CCOC(=O)c1sc2nc(-c3cc(OC)c(OC)c(OC)c3)nc(N)c2c1C [Compound 4, Ethyl 4-Amino-5-methyl-2-(3,4,5-trimethoxyphenyl)thieno [2,3-d]Pyrimidine-6-carboxylate]",IC50,MCF-10A cell line; [5],6.8 µM
same,IC50,MCF-10A cell line; [6],2.74 ± 0.13 µg/mL
same,IC50,MCF-7 cell line; [7],5 µM
same,IC50,MCF-7 cell line; [8],2.01 ± 0.07 µg/mL
same,IC50,MDA-MB-231 cell line; [9],16 µM
same,IC50,MDA-MB-231 cell line; [10],6.43 ± 0.95 µg/mL
same,CC50 at 24 h,[1],8.37 ± 0.6 µg/mL
same,PIF (Photoirritancy factor),BALB 3T3 cells [3],0.7
same,CC50 at 24 h,[2],11.8 ± 0.8 µg/mL
C=CC(=O)N1CCc2c(sc3ncnc(NC(CO)c4ccccc4)c23)C1 (stereo not shown) [IX],IC50,EGFR; Figure 1,0.008 µM
Cc1cccc(NC(=O)Nc2ccc(-c3csc4ncnc(N)c34)cc2)c1 [IV],IC50,KDR,0.003 µM
Fc1ccccc1Nc1ncnc2sc3c(c12)CCCC3 [X],EGFR/HER2 inhibitory activity IC50 (in words),EGFR,in the nanomolar range
Cc1ccccc1NC(=O)NCc1cccc(NC(=O)c2csc3ncnc(N)c23)c1 [III],IC50,Aurora B kinase,0.0038 µM
